We go through 2 compounds from patent US20200085918A1, “COMPOSITIONS AND METHODS FOR TREATMENT OF UREMIC CARDIOMYOPATHY” (priority 2016, published 2020).

In test [1] the test system is collagen-1. The format is cell-based, mouse. The procedure:
(§1) Western Blotting Analysis: Cardiac (left ventricle) tissue samples and cardiac fibroblast homogenates were prepared and analyzed as was previously described for collagen-1 and other proteins. Assessment of protein carbonylation and activation of c-Src and ERK1/2 was performed as was described previously. Multiple exposures were analyzed to assure that the signals were within the linear range of the film. The signal density was determined using NIH ImageJ 1.48v software. Polyclonal antibody against type I collagen was from Southern Biotech (Birmingham, Ala.). Polyclonal anti-Src [pY418] phosphospecific antibody was from Invitrogen (Camarillo, Calif.). Monoclonal antibody against total c-Src was from Santa Cruz (Santa Cruz, Calif.). 2,4-dinitrophenylhydrazine (DNPH) and antibody against 2,4-dinitrophenyl (DNP) hydrazone derivatives were from Sigma-Aldrich.
Experimental design for in vitro experiment: C57BL/6 mouse primary cardiac fibroblast cells (purchased from Cell Biologics, Inc., Chicago, Ill.) were resuspended in complete fibroblast medium with supplements and 10% FBS (Cell Biologics, Inc.). The cultures were maintained at 37° C. in a 5% CO2 incubator and the medium was changed after 48 h and every 2-3 days thereafter. Cardiac fibroblast cells (passage 3-4) were grown until over confluent and were serum-starved (with 1% FBS) overnight before being used for the experiments. Cells were treated with or without TCB (100 nM) to determine procollagen-1 and HO-1 expression (24 h treatment), and c-Src activation and protein carbonylation (1 h treatment).

For test [2], the system named is c-Src. Briefly: c-Src activation (pY418 c-Src/total c-Src) in primary cardiac fibroblasts. The format is cell-based, mouse. The procedure: as §1
(§2) Experimental design for in vitro experiment: C57BL/6 mouse primary cardiac fibroblast cells (purchased from Cell Biologics, Inc., Chicago, Ill.) were resuspended in complete fibroblast medium with supplements and 10% FBS (Cell Biologics, Inc.). The cultures were maintained at 37° C. in a 5% CO2 incubator and the medium was changed after 48 h and every 2-3 days thereafter. Cardiac fibroblast cells (passage 3-4) were grown until over confluent and were serum-starved (with 1% FBS) overnight before being used for the experiments. […]

The test system of test [3] is ERK1/2. Briefly: ERK1/2 activation (phosphor-ERK/total ERK) in primary cardiac fibroblasts. The format is cell-based, mouse. The method, then:
as §1, §2

In test [4] the test system is protein carbonylation. Briefly: Protein carbonylation in primary cardiac fibroblasts. The format is cell-based, mouse. The method, then:
as §1, §2

In test [5] the test system is HO-1. Briefly: HO-1 expression in primary cardiac fibroblasts. The format is cell-based, mouse. As to conditions: 24 h. The procedure: as §1, §2
Test [6] deals with PNx-induced cardiomyopathy, C57BL/6 mice. Briefly: Transthoracic echocardiography, PNx mice (effects of CoPP and pNaKtide on PNx-induced cardiomyopathy). The class given is in vivo, mouse. The note with it: PNX + CoPP (5 mg/kg BW ip), n = 15, mean ± SE. The procedure:
Experimental designs: Male C57BL/6 10-12 weeks were purchased from Hill Top Laboratories and housed in pathogen free animal facility in designated rooms equipped with cages that supply purified air under a 12 hour light/dark cycle. Food and water were supplied ad libitum. Animal protocol was approved by the Marshall University Institutional Animal Care and Use Committee. The number of animals in each group was determined by Power analysis using the following assumptions derived from a previous study with mice, with variance of 0.2 within the groups, power of 0.80, and alpha error of 0.05. Effects of CoPP and […] on PNx-induced cardiomyopathy: Cobalt protoporphyrin (CoPP, Frontier Scientific, Logan, Utah) was used to induct HO-1 expression and […] was used to block the Na/K-ATPase signaling function. […] Transthoracic Echocardiography: Transthoracic echocardiography was performed 24 hours before sacrifice. […] Mice in supine position were placed on a heating pad to keep the body temperature at 37° C. Body core temperature and ECG for physiological monitoring were obtained and manipulated by using a Visualsonics Mouse Handling Table (11436) and a rectal thermometer. Echocardiographic images were captured using MS400: 18-38 MHz operating frequency MicroScan transducer attached to a Vevo 1100 Imaging System (FUJIFILM VisualSonics Inc.). Warmed echo gel was placed between the probe and shaved chest. B-mode and M-mode images of the heart were obtained from parasternal long axis and short axis. PW Doppler and Color Doppler were obtained from basal short axis. The average values were calculated from at least four consecutive cardiac cycles. Left-ventricular end-diastolic area (EDA), end-systolic area (ESA), as well as main pulmonary artery diameter was measured from B-mode. End-diastolic diameters (EDD), end-systolic diameters (ESD), as well as anterior and posterior wall thickness (AWT & PWT) were captured from M-mode. Isovolumic contraction and relaxation time (IVCT & IVRT), ejection time (ET), as well as pulmonary velocity time integral (VTI) were obtained from PW and color Doppler.

In test [7] the test system is PNx mice. Briefly: Heart weight/body weight ratio, CoPP and pNaKtide study. The format is in vivo, mouse. As to conditions: PNx + CoPP 5 mg/kg BW ip.
Method: Nephrectomy Mouse Model: The PNx model included two-step surgeries. […] Step-two surgery was operated 7 days later, in which the right kidney was removed. For sham surgery, the two-step surgeries were performed in the same way as in the PNx group, without ligation of left kidney and removal of right kidney.
CoPP injections were given 5 days prior to, and on the day of, surgery, as well as every 5 days thereafter until sacrificing.
The test system of test [8] is PNx mice. Briefly: Renal function: plasma cystatin C, creatinine and BUN, CoPP and pNaKtide study. The note with it: PNx + CoPP 5 mg/kg BW ip. The format is in vivo, mouse. The procedure: Measurement of plasma cystatin C, creatinine and blood urea nitrogen (BUN): Mouse cystatin C ELISA kit and mouse creatinine kit were obtained from Crystal Chem. Inc. (Downers Grove, Ill.). Mouse BUN ELISA kit was obtained from MyBioSource Inc (San Diego, Calif.). The measurements were performed following manufacturers' instructions. Each sample was tested in duplicate.

In test [9] the test system is PNx-induced cardiac fibrosis. Briefly: Cardiac fibrosis by Sirius Red/Fast Green staining, CoPP and pNaKtide study. The note with it: PNx + CoPP 5 mg/kg BW ip; p<0.01 vs. PNx. The class given is in vivo, mouse. The procedure:
Effects of CoPP and […] on PNx-induced cardiomyopathy: Cobalt protoporphyrin (CoPP, Frontier Scientific, Logan, Utah) was used to induct HO-1 expression and […] was used to block the Na/K-ATPase signaling function. […] Sirius Red/Fast Green staining: Histology staining for collagen fiber was performed on tissues harvested with Sirius Red/Fast Green Collagen Staining solutions (Sigma-Aldrich) according to the manufacturer's protocol. Tissues preparation, fixation, and data analysis were conducted as previously described.

Test [10] deals with collagen-1. Briefly: Collagen-1 expression in left ventricle homogenates (western blot), CoPP and pNaKtide study. The class given is in vivo, mouse. As to conditions: LV homogenates; PNx + CoPP 5 mg/kg BW ip; p<0.01 vs PNx. The method, then:
as §1

In test [11] the test system is HO-1. Briefly: HO-1 expression in left ventricle homogenates (western blot), CoPP and pNaKtide study. The class given is in vivo, mouse. The note with it: CoPP 5 mg/kg BW ip. The procedure: as §1
Test [12] relates to c-Src. Briefly: c-Src activation in left ventricle homogenates, CoPP and pNaKtide study. The format is in vivo, mouse. The note with it: PNx + CoPP 5 mg/kg BW ip, 4 weeks after PNx; p<0.01 vs PNx. The procedure:
as §1

Test [13] has as its system ERK1/2. Briefly: ERK1/2 activation in left ventricle homogenates, CoPP and pNaKtide study. The format is in vivo, mouse. The note with it: PNx + CoPP 5 mg/kg BW ip, 4 weeks after PNx; p<0.01 vs PNx. The procedure: as §1
Test [14] concerns protein carbonylation. Briefly: Protein carbonylation in left ventricle homogenates, CoPP and pNaKtide study. The format is in vivo, mouse. The note with it: PNx + CoPP 5 mg/kg BW ip; p<0.01 vs PNx. The procedure:
as §1

A further test relates to TBARS. Briefly: Thiobarbituric acid reactive substances (TBARS) in treated PNx mice. The format is in vivo, mouse. The note with it: PNx + CoPP 5 mg/kg BW ip.
[15] abbreviates: CoPP 5 μM, 24 h pre-treatment, TCB 100 nM 1 h.
Where [16] appears, read: TCB 100 nM, 1 h, cardiac fibroblasts.

Turning to `C=CC1=C(C)c2cc3[n-]c(cc4nc(cc5[n-]c(cc1n2)c(C)c5CCC(=O)[O-])C(CCC(=O)[O-])=C4C)c(C)c3C=C.[Co+2].[H+].[H+]` [CoPP, cobalt protoporphyrin], the “collagen-1 expression at baseline” value with collagen-1 [1] (CoPP 5 μM, 24 h, no TCB, C57BL/6 mouse primary cardiac fibroblasts) is given as “did not significantly affect”. For the same compound, the “TCB induced increases in collagen-1 expression” value in the test on collagen-1 [1] (CoPP 5 μM, 24 h pre-treatment, TCB 100 nM 24 h, p<0.01 vs TCB alone) was “significantly ameliorated”. Moreover, in the test on c-Src [2] (setting [15]), the “TCB induced activation of c-Src” value is reported as “attenuated”. The “TCB induced activation of ERK1/2” value with ERK1/2 [3] (setting [15]) is “attenuated”. In the test with protein carbonylation [4] (setting [15]), the “TCB induced protein carbonylation” value is listed as “attenuated”. The HO-1 induction result in the test with HO-1 [5] (CoPP 5 μM, compared with TCB) is “considerably greater”. Moreover, in test [6], the “AWT, anterior wall thickness” value is listed as 0.65 ± 0.01^$$ mm; the “CO, cardiac output” value was determined as 10.5 ± 0.3 mL/min; the “EDA, end diastolic area” value was determined as 27.2 ± 0.6 mm^2; the “EDD, end diastolic dimension” value is 4.4 ± 0.1 mm. Also, in [6], the “EF, ejection fraction” value amounted to 60.0 ± 2.9%; the “ESA, end systolic area” value worked out at 19.0 ± 0.1 mm^2; the “ESD, end systolic dimension” value is recorded as 3.2 ± 0.1 mm; the “ET, ejection time” value was determined as 44 ± 1.0 ms. In addition, in test [6], the “FS, fractional shortening” value amounted to 26.8 ± 1.7%; the “HR, heart rate” value worked out at 453 ± 11 beat/min; the “IVCT + IVRT, isovolumic contraction time + isovolumic relaxation time” value is reported as 21 ± 0.7^$$ msec; the “LVMI, left ventricle mass index” value was 4.0 ± 0.1^$$. Moreover, in [6], the “PWT, posterior wall thickness” value is on record as 0.59 ± 0.02^$$ mm; the “PaD, pulmonary artery dimension” value is 1.0 ± 0.02 mm; the “PaVTI, pulmonary artery Velocity time integral” value is recorded as 29.9 ± 0.5^$. Further, in the test on PNx mice [7], the “increase in heart weight/body weight ratio with PNx” value was “not”. Besides, the “renal function as assessed by plasma cystatin C, creatinine, and BUN” value in the test with PNx mice [8] is on record as “neither CoPP nor pNaKtide effected significant changes”. Moreover, the “PNx-induced cardiac fibrosis, Sirius Red/Fast Green staining” value in test [9] is “significantly attenuated”. Besides, the “PNx-induced increases in cardiac collagen-1 expression” value with collagen-1 [10] was “reduced”. In the test with HO-1 [11], the “HO-1 expression in the LV homogenates” value was “induced HO-1 expression most profoundly”. The “activation of c-Src in LV homogenates” value in the test on c-Src [12] is recorded as “attenuated”. Besides, the “activation of ERK1/2 in LV homogenates” value in the test on ERK1/2 [13] is “attenuated”. Moreover, in the test on protein carbonylation [14], the “PNx-induced protein carbonylation in LV homogenates” value is on record as “reduced”. Besides, in the test with TBARS, the TBARS result is recorded as “consistent with the carbonylation data”.
Regarding `C[C@]12CC[C@H](O)C[C@@]1(O)CC[C@@H]1[C@@H]2CC[C@]2(C)[C@@H](c3ccc(=O)oc3)CC[C@]12O` [TCB, telecinobufagin], the “type I collagen (collagen-1) expression” value with collagen-1 [1] (TCB 100 nM, 24 h, vs control, C57BL/6 mouse primary cardiac fibroblasts, p<0.01) is recorded as “induced increases”. Moreover, the “activation of c-Src” value with c-Src [2] (setting [16]) was “induced activation”. Besides, in the test with ERK1/2 [3] (setting [16]), the “activation of ERK1/2” value is “induced activation”. In the test with protein carbonylation [4] (setting [16]), the protein carbonylation result is “induced activation”. In addition, the HO-1 expression result with HO-1 [5] (TCB 100 nM) was “increased”.
